Measured values: PMC7939467, “Ascertaining the biochemical function of an essential pectin methylesterase in the gut microbe Bacteroides thetaiotaomicron” (The Journal of Biological Chemistry, 2021)
Like-named read-outs stand apart in the source and are kept apart here.

What was measured:
BT1017-SP = target: T1, BT1017-SP (Bacteroides thetaiotaomicron, UniProt Q8A900); experiment: coupled spectrophotometric methanol release assay; assay type: biochemical; conditions: 1.7 μM enzyme, read-out: BT1017 constructs / BT1017-SP
T1 construct: gene BT_1017
T1 sequence (Q8A900 21-653): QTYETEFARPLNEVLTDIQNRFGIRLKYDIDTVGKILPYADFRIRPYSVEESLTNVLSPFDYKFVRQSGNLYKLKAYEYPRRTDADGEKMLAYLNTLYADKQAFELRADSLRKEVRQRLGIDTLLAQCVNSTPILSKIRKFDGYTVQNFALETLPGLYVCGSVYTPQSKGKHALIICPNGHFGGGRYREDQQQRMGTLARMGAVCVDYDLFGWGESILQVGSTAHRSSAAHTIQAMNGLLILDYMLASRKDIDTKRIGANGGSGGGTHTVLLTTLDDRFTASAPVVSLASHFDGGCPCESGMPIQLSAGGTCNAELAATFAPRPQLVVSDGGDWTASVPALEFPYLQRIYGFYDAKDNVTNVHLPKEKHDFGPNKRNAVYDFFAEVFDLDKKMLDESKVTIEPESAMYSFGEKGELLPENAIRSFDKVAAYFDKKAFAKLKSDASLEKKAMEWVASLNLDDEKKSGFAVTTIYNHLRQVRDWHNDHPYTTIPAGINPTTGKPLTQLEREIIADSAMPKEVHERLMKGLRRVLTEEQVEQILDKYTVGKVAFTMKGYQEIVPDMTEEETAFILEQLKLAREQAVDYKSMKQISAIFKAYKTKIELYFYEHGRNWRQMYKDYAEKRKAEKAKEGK
Text: coupled spectrophotometric methanol release assay on BT1017-SP

BT1017-CM = target: T2, BT1017-CM (Bacteroides thetaiotaomicron, UniProt Q8A900); experiment: coupled spectrophotometric methanol release assay; assay type: biochemical; conditions: 1.7 μM enzyme, pH and temperature not given (optimum pH 8.5, 37 °C), read-out: BT1017 constructs / BT1017-CM
T2 construct: gene BT_1017; crystal model residues 20-462 (text also gives module as 20-400); C-terminal His6; E. coli Tuner(DE3)
T2 sequence (Q8A900 20-462): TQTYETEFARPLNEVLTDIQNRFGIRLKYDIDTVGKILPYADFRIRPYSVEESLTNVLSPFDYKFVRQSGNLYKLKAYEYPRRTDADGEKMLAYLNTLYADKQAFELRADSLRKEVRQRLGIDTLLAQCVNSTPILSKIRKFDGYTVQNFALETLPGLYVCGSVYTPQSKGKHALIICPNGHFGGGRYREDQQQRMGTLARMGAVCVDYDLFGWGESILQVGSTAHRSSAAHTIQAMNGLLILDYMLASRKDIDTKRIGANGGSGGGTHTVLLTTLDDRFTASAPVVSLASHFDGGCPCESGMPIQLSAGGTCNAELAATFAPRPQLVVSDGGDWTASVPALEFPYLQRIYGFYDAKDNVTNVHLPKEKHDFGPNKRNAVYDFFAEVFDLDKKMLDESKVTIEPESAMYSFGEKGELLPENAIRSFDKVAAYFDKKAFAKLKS
Text: coupled spectrophotometric methanol release assay on BT1017-CM

Substance	Km (BT1017-SP; 0.046–1.38 mM substrate, pH and temperature of the kinetics not stated (optimum pH 8.5, 37 °C)) [µM]	Km (BT1017-CM; 0.046–1.38 mM substrate) [µM]	Km (BT1017-SP; 0.09–3.47 mM substrate, pH and temperature not given (optimum pH 8.5, 37 °C)) [µM]	Km (BT1017-CM; 0.09–3.47 mM substrate) [µM]
GlcA-β1,4-(2-O-Me-Xyl-α1,3)-Fuc-α1,4-(GalA-β1,3)-Rha-α1,3-Api-β1,2-(Araf-α1,3)-(GalA-α1,4)-GalA [ΔBT1017oligoB]	200 ± 30	400 ± 70	–	–
Rha-α1,3-Api-β1,2-(Araf-α1,3)-(6-O-Me-GalA-α1,4)-GalA [ΔBT1017oligoA]	–	–	3000 ± 400	1000 ± 200
